# In US11643439B2, “Multi-target compound with anticoagulation and antiplatelet activity, preparation method therefor, and use thereof” (SHAANXI MICOT TECHNOLOGY LIMITED COMPANY, priority 2015, dated 2023):
# Marks after values point to notes of the source that are not given here.
# How the values were obtained:
# [1] = system: blood coagulation function; assay: APTT in rats, intravenous maintenance administration; assay type: in vivo, rat
# Procedure: (§1) 160 Rats were randomly divided into groups, 5 to 10 rats per group.
# (§2) According to the body weight in kilograms of the rats, the first dose of a drug was dissolved in 2 mL of physiological saline for single bolus injection. The maintaining dose of drug was dissolved in 9 ml of physiological saline, and placed in a double-channel micro-injection pump, which was dripped off within 90 minutes at a dripping speed of 0.1 ml/min. The sham operation group was administered with the same volume of physiological saline.
# (§3) The rats were fasted with free access to water overnight before the experiment.
# The blood samples were taken before administration, administration for 60 minutes, and before termination of administration, respectively, to determine their activated partial thromboplastin time (APTT) and prothrombin time (PT). The blood samples were centrifuged at 3510 rpm for 8 minutes to obtain platelet poor plasma (PPP). Reagent reconstruction and preservation were performed according to the operation requirements of the kit. Immediately after each blood sample was placed into a test cup and then PT and APTT reagents were added, the test was started. After the test was completed, results were recorded.
# 5.1 Determination of blood coagulation function: The blood samples were taken 0 min before administration, administration for 60 minutes, and termination of administration, respectively, and then determined using a platelet-aggregation coagulation factor analyzer for the blood coagulation functions (PT. APTT) and ACT.
# [2] = system: platelet aggregation; assay: Platelet aggregation in rabbits, single intravenous administration; assay type: in vivo, rabbit
# Procedure: (§4) 1. Grouping and administration: 48 Rabbits were randomly divided into 6 groups, 8 rabbits per group. 1) Sham operation group (NS): Intravenous injection of the same volume of physiological saline; 2) positive control bivalirudin group (6 mg/kg); 3) positive control enoxaparin group (200 U/kg); 4) Low dose group of polypeptide 2 (3.0 mg/kg); 5) Medium dose group of polypeptide 2 (6.0 mg/kg); 6) High dose group of polypeptide 2 (12.0 mg/kg). Polypeptide 2 was administered by single intravenous administration. According to the body weight in kilograms of the rabbits, the sample was dissolved in 2 mL of physiological saline for single bolus injection. The sham operation group was administered with the same volume of physiological saline.
# 3.1 Platelet aggregation rate: 2.7 ml of blood was taken from the femoral vein, rapidly injected into a centrifuge tube containing 0.3 ml of 3.8% sodium citrate solution, and fully mixed well. The resulted blood samples were centrifuged at 810 rpm (100 g) for 8 min to obtain PRP, which was taken out and centrifuged at 3500 rpm (1863 g) for 8 min to obtain PPP, which was used to determine platelet aggregation.
# Blood samples were taken at a point before administration (0 min), and at points of administration for 5 min and 15 min, respectively, to determine the platelet aggregation rate, which was used to calculate the inhibitory rate of platelet aggregation with a calculation equation as follows: […]
# [3] = system: femoral arterial and venous bypass thrombosis; assay: Femoral arterial and venous bypass thrombosis in rabbits, single intravenous administration; assay type: in vivo, rabbit; conditions: 15 min
# Procedure: as §4
# 2.1 Surgery preparation of rabbits: Rabbit were sent to the laboratory for accommodation for one day, and then screened at first. Blood samples were taken from arteries within ears, which were subjected to blood routine analysis and APTT examinations, and the rabbits with a normal blood hemogram and APTT between 16 and 28 seconds were selected for experiments. The rabbits to be tested were fasted with free access to water in the night before the experiment. The rabbits were anesthetized with intravenous injection of 3% sodium pentobarbital solution at 1 ml/kg, fixed in the supine position, and then, the common carotid artery at one side, external jugular vein, femoral artery at one side, femoral vein, and forelimb vein at one side were isolated. The forelimb vein was subjected to intubation for administration; the left femoral vein was subjected to intubation for blood collection to determine the platelet aggregation rate: the femoral artery was used for the establishment of an arterial thrombosis model; the common carotid artery and external jugular vein were used for the establishment of an arterial and venous bypass thrombosis model.
# 2.2 Arterial and venous bypass thrombosis (AVST) model: An arterial and venous shunt consists of two casings, of which an outer casing has a length of about 8 cm and an inner diameter of 7.9 mm, the inner casing has a length of about 2.5 cm and an inner diameter of 4.8 mm. The polyethylene tube was charged with a silk thread about 8 cm long and filled with […] heparin solution, of which one end was inserted into the left femoral artery and the other end was inserted into the right femoral vein. After administration for 30 seconds, the blood flow was released, which flowed from the left artery to the polyethylene tube and returned to the right vein. After 15 minutes, the blood flow was interrupted, the silk thread was quickly removed and placed on an aluminum foil (size: 2.5 cm×2.5 cm), measured for its wet weight, and kept overnight at room temperature and weighed for its dry weight.
# The femoral arteries in the […] and both sides in the rabbits were isolated and stabilized for 10 min before the administration was started. An AT model was established by covering the femoral artery with 50% FeCl3 filter paper while administration, and the filter paper was removed after covering for 15 minutes. An AVST model was established and it was taken out after […]. Observation was continued for 120 min after administration until the experiment was completed.
# 3.4 Thrombus weight: After the experiment was completed, the segment of the blood vessels in which there had been thrombus formation was cut off, weighed for the wet weight, and then kept overnight at room temperature and weighed for the dry weight. The thrombosis inhibitory rate was calculated with a calculation equation as follows: […]
# [4] = system: FeCl3-induced inferior vena cava thrombosis; assay: FeCl3-induced inferior vena cava thrombosis in rats; assay type: in vivo, rat
# Procedure: as §1, §2, §3
# 15 minutes later, the filter paper was removed. And then, after observation for 45 minutes, the blood vessels and local tissues were rinsed with warm physiological saline, and the covered blood vessels were cut off. The thrombus which attached to the blood vessel walls was peeled off to be weighed on a tin foil for its wet weight, and then weighed overnight at room temperature for its dry weight. The administration was continued until the completion of the experiment.
# After the experiment was completed, the segment of the blood vessels in which there had been thrombus formation was cut off, weighed for the wet weight, and then weighed overnight at room temperature for the dry weight of the thrombus. Thrombosis inhibitory rate was calculated.
# [5] = iv 0.041 + 0.125 (mg/kg + mg/kg/h)
# [6] = iv 0.125 + 0.375 (mg/kg + mg/kg/h)
# [7] = iv 0.25 + 0.75 (mg/kg + mg/kg/h)
# [8] = iv 0.5 + 1.25 (mg/kg + mg/kg/h)
# [9] = iv 1.5 + 3.75 (mg/kg + mg/kg/h)
substance,measurement,setting,value
D-Phe Pro Arg Pro Gly Gly Gly Gly Asn Gly Asp Phe Glu Glu Ile Pro Glu Glu Tyr Leu Glu Ala Ala Ala Lys Cys Har Gly Asp Trp Pro Cys [Polypeptide 2],APTT Before administration,[1]; [5],24.54 ± 5.09
same,APTT Fold of change,[1]; [5],1.65 ± 0.84
same,APTT administration for 60 minutes,[1]; [5],37.29 ± 10.59
same,APTT Before administration,[1]; [6],24.05 ± 5.44
same,APTT Fold of change,[1]; [6],1.94 ± 0.68
same,APTT administration for 60 minutes,[1]; [6],44.55 ± 12.74
same,APTT Before administration,[1]; [7],24.98 ± 5.11
same,APTT Fold of change,[1]; [7],2.22 ± 1.12
same,APTT administration for 60 minutes,[1]; [7],53.13 ± 22.57
same,APTT Before administration,[1]; [8],22.03 ± 4.70
same,APTT Fold of change,[1]; [8],2.49 ± 1.38
same,APTT administration for 60 minutes,[1]; [8],52.29 ± 25.87
same,APTT Before administration,[1]; iv 1 + 2.5 (mg/kg + mg/kg/h),23.98 ± 6.83
same,APTT Fold of change,[1]; iv 1 + 2.5 (mg/kg + mg/kg/h),5.01 ± 3.00
same,APTT administration for 60 minutes,[1]; iv 1 + 2.5 (mg/kg + mg/kg/h),108.52 ± 56.27
same,APTT Before administration,[1]; [9],23.94 ± 4.49
same,APTT Fold of change,[1]; [9],3.19 ± 2.02
same,APTT administration for 60 minutes,[1]; [9],74.62 ± 49.41
same,inhibitory rate of platelet aggregation,"[2]; single iv 3.0 mg/kg, Administration for 5 min",17.2 ± 6.7%
same,inhibitory rate of platelet aggregation,"[2]; single iv 3.0 mg/kg, Administration for 15 min",6.3 ± 7.0%
same,inhibitory rate of platelet aggregation,"[2]; single iv 6.0 mg/kg, Administration for 5 min",47.5 ± 5.8*^#¥& %
same,inhibitory rate of platelet aggregation,"[2]; single iv 6.0 mg/kg, Administration for 15 min",15.4 ± 6.0%
same,inhibitory rate of platelet aggregation,"[2]; single iv 12.0 mg/kg, Administration for 5 min",72.5 ± 6.2*#^¥&@ %
same,inhibitory rate of platelet aggregation,"[2]; single iv 12.0 mg/kg, Administration for 15 min",46.0 ± 6.5*^#¥&@ %
same,Thrombus dry weight,[3]; single iv 3.0 mg/kg,20.2 ± 4.3 mg
same,Thrombus inhibitory rate,[3]; single iv 3.0 mg/kg,14.48%
same,Thrombus dry weight,[3]; single iv 6.0 mg/kg,13.5 ± 5.3 mg
same,Thrombus inhibitory rate,[3]; single iv 6.0 mg/kg,42.80%
same,Thrombus dry weight,[3]; single iv 12.0 mg/kg,10.6 ± 6.8 mg
same,Thrombus inhibitory rate,[3]; single iv 12.0 mg/kg,55.24%
same,Inferior vena cava thrombosis Inhibition percentage,[4]; [5],10.38%
same,Inferior vena cava thrombosis Thrombus weight,[4]; [5],20.20 ± 10.00 mg
same,Inferior vena cava thrombosis Inhibition percentage,[4]; [6],27.99%
same,Inferior vena cava thrombosis Thrombus weight,[4]; [6],16.23 ± 6.76 mg
same,Inferior vena cava thrombosis Inhibition percentage,[4]; [7],36.85%
same,Inferior vena cava thrombosis Thrombus weight,[4]; [7],14.23 ± 4.82 mg
same,Inferior vena cava thrombosis Inhibition percentage,[4]; [8],58.96%
same,Inferior vena cava thrombosis Thrombus weight,[4]; [8],9.25 ± 4.86 mg
same,Inferior vena cava thrombosis Inhibition percentage,[4]; iv 1 + 2.5 (mg/kg + mg/kg/h),56.03%
same,Inferior vena cava thrombosis Thrombus weight,[4]; iv 1 + 2.5 (mg/kg + mg/kg/h),9.91 ± 6.20 mg
same,Inferior vena cava thrombosis Inhibition percentage,[4]; [9],68.37%
same,Inferior vena cava thrombosis Thrombus weight,[4]; [9],7.13 ± 3.46 mg
